“And” between values parts separate entries of the source, which are not always exact repeats. Identical values can stand only once. Where a SMILES comes first, the peptide text is derived from it. [ ]: non-standard residue; d: D form. Hyp = O=C(O)[C@@H]1C[C@@H](O)CN1
Tested on: CCL4/MIP-1 beta
Assay: Example 8 main study Luminex, LPS hPBMCs: CCL4/MIP-1 beta
Format: cell-based, human
Conditions: for LPS-induced CCL-4 (in words): at as low as 5 μM, LPS 5 ug/mL 24 hrs
Protocol: Human PBMCs were pretreated with YY-101, YDE-011, YDE-043 or reference compound; Xiidra® at various concentration (ranging from […] to 500 nM) for 2 h before stimulation. An equal volume of 0.5% DMSO was used as a vehicle control. Then, the cells were treated with LPS at 5 ug/ml, which was selected based on the pilot study. The supernatants from treated cells were harvested at 24 h and placed in a 96 well for Luminex cytokine & chemokine profiling using a Luminex 200 multiplex assay (Luminex; R&D system, USA).
The main study arm with triplicate wells per group in a 24-well plate: • 1. Blank • 2. PBMC: 0.5% DMSO • 3. PBMC+LPS (5 ug/ml) • 4. PBMC+YY-101 500 nM • 5. PBMC+YY-101 50 nM • 6. PBMC+YY-101 5 nM • 7. PBMC+YY-101 0.5 nM • 8. PBMC+LPS (5 ug/ml)+Xiidra® 500 nM • 9. PBMC+LPS (5 ug/ml)+Xiidra® 50 nM • 10. PBMC+LPS (5 ug/ml)+Xiidra® 5 nM • 11. PBMC+LPS (5 ug/ml)+Xiidra® 0.5 nM • 12. PBMC+LPS (5 ug/ml)+Xiidra® 0.05 nM • 13. PBMC+LPS (5 ug/ml)+Xiidra® 0.005 nM • 14. PBMC+LPS (5 ug/ml)+YY-101 500 nM • 15. PBMC+LPS (5 ug/ml)+YY-101 50 nM • 16. PBMC+LPS (5 ug/ml)+YY-101 5 nM • 17. PBMC+LPS (5 ug/ml)+YY-101 0.5 nM • 18. PBMC+LPS (5 ug/ml)+YY-101 0.05 nM • 19. PBMC+LPS (5 ug/ml)+YY-101 0.005 nM • 20. PBMC+LPS (5 ug/ml)+YDE-011 500 nM • 21. PBMC+LPS (5 ug/ml)+YDE-011 50 nM • 22. PBMC+LPS (5 ug/ml)+YDE-011 5 nM • 23. PBMC+LPS (5 ug/ml)+YDE-011 0.5 nM • 24. PBMC+LPS (5 ug/ml)+YDE-011 0.05 nM • 25. PBMC+LPS (5 ug/ml)+YDE-011 0.005 nM • 26. PBMC+LPS (5 ug/ml)+YDE-043 500 nM • 27. PBMC+LPS (5 ug/ml)+YDE-043 50 nM • 28. PBMC+LPS (5 ug/ml)+YDE-043 5 nM • 29. PBMC+LPS (5 ug/ml)+YDE-043 0.5 nM • 30. PBMC+LPS (5 ug/ml)+YDE-043 0.05 nM • 31. PBMC+LPS (5 ug/ml)+YDE-043 0.005 nM
Multiplex assay was used to measure 30 cytokines and chemokines. The 1:200 diluted cell supernatant and serial dilution of the standard were dispensed into a 96 well plate at 50 ul/well. Then, the pre-mixed cocktail of antibody-coated magnetic beads was dispensed at 50 ul/well and incubated at room temperature for 2 h in a horizontal orbital microplate shaker at 800±500 rpm. The beads were washed using a magnetic device to prevent loss. The biotin-antibody was dispensed in 50 ul of each well and incubated at room temperature for 1 h in a shaker at 800±500 rpm. After washing, streptavidin-PE was added at 50 ul/well and incubated at room temperature for 30 min in a shaker under the same conditions. Finally, after washing, wash buffer (100 ul/well) was added to the plate and incubated in a shaker for 2 min. The Luminex™ 200 setting were set according to the manufacturer's protocol. The data was calculated with a standard five-parameter logistic nonlinear regression analysis of the data (xPonent software 4.2, USA). Results were presented as concentration (ng/ml or pg/ml).

[1] = PBMC + LPS(5 ug/ml) + test article 0.005 nM, Mean
[2] = PBMC + LPS(5 ug/ml) + test article 0.005 nM, single replicates
[3] = PBMC + LPS(5 ug/ml) + test article 0.05 nM, Mean
[4] = PBMC + LPS(5 ug/ml) + test article 0.05 nM, single replicates
[5] = PBMC + LPS(5 ug/ml) + test article 0.5 nM, Mean
[6] = PBMC + LPS(5 ug/ml) + test article 0.5 nM, single replicates
[7] = PBMC + LPS(5 ug/ml) + test article 5 nM, Mean
[8] = PBMC + LPS(5 ug/ml) + test article 5 nM, single replicates
[9] = PBMC + LPS(5 ug/ml) + test article 50 nM, Mean
[10] = PBMC + LPS(5 ug/ml) + test article 50 nM, single replicates
[11] = PBMC + LPS(5 ug/ml) + test article 500 nM, Mean
[12] = PBMC + LPS(5 ug/ml) + test article 500 nM, single replicates
[13] = PBMC + test article 0.5 nM, no LPS, single replicates
[14] = PBMC + test article 5 nM, no LPS, single replicates
[15] = PBMC + test article 0.05 uM, no LPS, single replicates
[16] = PBMC + test article 50 nM, no LPS, single replicates
[17] = PBMC + test article 500 nM, no LPS, single replicates

Structure (SMILES) | CCL4/MIP-1 beta Concentration [1] | CCL4/MIP-1 beta MFI [1] | CCL4/MIP-1 beta Concentration [2] | CCL4/MIP-1 beta MFI [2] | CCL4/MIP-1 beta Concentration [3] | CCL4/MIP-1 beta MFI [3] | CCL4/MIP-1 beta Concentration [4] | CCL4/MIP-1 beta MFI [4] | CCL4/MIP-1 beta Concentration [5] | CCL4/MIP-1 beta MFI [5] | CCL4/MIP-1 beta Concentration [6] | CCL4/MIP-1 beta MFI [6] | CCL4/MIP-1 beta Concentration [7] | CCL4/MIP-1 beta MFI [7] | CCL4/MIP-1 beta Concentration [8] | CCL4/MIP-1 beta MFI [8] | CCL4/MIP-1 beta Concentration [9] | CCL4/MIP-1 beta MFI [9] | CCL4/MIP-1 beta Concentration [10] | CCL4/MIP-1 beta MFI [10] | other results
CC(C)C[C@H](NC(=O)CNC(=O)[C@H](CC(C)C)NC(=O)[C@H](CCC(N)=O)NC(=O)CNC(=O)[C@@H]1C[C@@H](O)CN1)C(=O)N[C@@H](C)C(=O)NCC(=O)N1CCC[C@H]1C(=O)N[C@@H](CCCCN)C(=O)O [YDE-011] (H-[Hyp]GQLGLAGPK-OH) | 20786.2 pg/mL | 12.3 | 19701.2 pg/ml (2×) and 22956.0 pg/ml | 12.0 (2×) and 13.0 | 22956.0 pg/mL | 13.0 | 22956.0 pg/mL | 13.0 | 22956.0 pg/mL | 13.0 | 22956.0 pg/mL | 13.0 | 16738.7 pg/mL | 11.3 | 15257.5 pg/ml (2×) and 19701.2 pg/ml | 11.0 (2×) and 12.0 | 23847.2 pg/mL | 13.3 | 25629.7 pg/ml and 22956.0 pg/ml (2×) | 14.0 and 13.0 (2×) | CCL4/MIP-1 beta Concentration [11]: 13759.1 pg/mL; CCL4/MIP-1 beta MFI [11]: 11.3; CCL4/MIP-1 beta Concentration [12]: 19701.2 pg/ml (2×) and 1874.9 pg/ml; CCL4/MIP-1 beta MFI [12]: 12.0 (2×) and 10.0; LPS-induced CCL-4 (in words): significantly reduced
CC(C)C[C@H](NC(=O)[C@H](CCC(N)=O)NC(=O)CNC(=O)[C@@H]1C[C@@H](O)CN1)C(=O)NCC(=O)O [YDE-043] (H-[Hyp]GQLG-OH; N-terminus and C-terminus assumed) | 24223.5 pg/mL | 13.7 | 22956.0 pg/mL and 30013.2 pg/mL and 19701.2 pg/mL | 13.0 and 16.0 and 12.0 | 19701.2 pg/mL | 12.0 | 19701.2 pg/mL | 12.0 | 21871.1 pg/mL | 12.7 | 22956.0 pg/ml (2×) and 19701.2 pg/ml | 13.0 (2×) and 12.0 | 20786.2 pg/mL | 12.3 | 19701.2 pg/ml (2×) and 22956.0 pg/ml | 12.0 (2×) and 13.0 | 21205.1 pg/mL | 12.5 | 22956.0 pg/ml (2×) and 17703.4 pg/ml | 13.0 (2×) and 11.5 | CCL4/MIP-1 beta Concentration [11]: 22762.3 pg/mL; CCL4/MIP-1 beta MFI [11]: 13.0; CCL4/MIP-1 beta Concentration [12]: 25629.7 pg/mL and 22956.0 pg/mL and 19701.2 pg/mL; CCL4/MIP-1 beta MFI [12]: 14.0 and 13.0 and 12.0; LPS-induced CCL-4 (in words): significantly reduced
CC(C)C[C@H](NC(=O)CNC(=O)[C@H](CC(=O)O)NC(=O)[C@H](CCC(N)=O)NC(=O)CNC(=O)[C@@H]1C[C@@H](O)CN1)C(=O)N[C@@H](C)C(=O)NCC(=O)N1CCC[C@H]1C(=O)N[C@@H](CCCCN)C(=O)O [YY-101] (H-[Hyp]GQDGLAGPK-OH; N-terminus and C-terminus assumed) | 21677.4 pg/mL | 12.7 | 25629.7 pg/ml and 19701.2 pg/ml (2×) | 14.0 and 12.0 (2×) | 21011.4 pg/mL | 12.5 | 25629.7 pg/mL and 17703.4 pg/mL and 19701.2 pg/mL | 14.0 and 11.5 and 12.0 | 21011.4 pg/mL | 12.5 | 17703.4 pg/mL and 25629.7 pg/mL and 19701.2 pg/mL | 11.5 and 14.0 and 12.0 | 16072.8 pg/mL | 11.2 | 17703.4 pg/ml and 15257.5 pg/ml (2×) | 11.5 and 11.0 (2×) | 16738.7 pg/mL | 11.3 | 15257.5 pg/ml (2×) and 19701.2 pg/ml | 11.0 (2×) and 12.0 | CCL4/MIP-1 beta Concentration [11]: 18220.0 pg/mL; CCL4/MIP-1 beta MFI [11]: 11.7; CCL4/MIP-1 beta Concentration [12]: 15257.5 pg/ml and 19701.2 pg/ml (2×); CCL4/MIP-1 beta MFI [12]: 11.0 and 12.0 (2×); CCL4/MIP-1 beta MFI (PBMC + test article 0.5 nM, no LPS, Mean): 6.0; CCL4/MIP-1 beta Concentration [13]: <148.02 pg/mL; CCL4/MIP-1 beta MFI [13]: 6.0; CCL4/MIP-1 beta MFI (PBMC + test article 5 nM, no LPS, Mean): 6.5; CCL4/MIP-1 beta Concentration [14]: <148.02 pg/mL; CCL4/MIP-1 beta MFI [14]: 7.0 and 6.0; CCL4/MIP-1 beta MFI (PBMC + test article 0.05 uM, no LPS, Mean): 5.5; CCL4/MIP-1 beta Concentration [15]: <148.02 pg/mL; CCL4/MIP-1 beta MFI [15]: 6.0 and 5.0; CCL4/MIP-1 beta MFI (PBMC + test article 50 nM, no LPS, Mean): 7.5; CCL4/MIP-1 beta Concentration [16]: <148.02 pg/mL; CCL4/MIP-1 beta MFI [16]: 8.0 and 7.0; CCL4/MIP-1 beta MFI (PBMC + test article 500 nM, no LPS, Mean): 6.5; CCL4/MIP-1 beta Concentration [17]: <148.02 pg/mL; CCL4/MIP-1 beta MFI [17]: 6.0 and 7.0; LPS-induced CCL-4 (in words): significantly reduced

Source: US20230146455A1, “TREATMENT OF INFLAMMATORY DISEASES WITH PEPTIDES AND PHARMACEUTICAL COMPOSITIONS” (Yuyu Pharma, Inc., priority 2020, published 2023)
